Source: paper PMC5130005, “Indolin-2-one compounds targeting thioredoxin reductase as potential anticancer drug leads” (Oncotarget, 2016)

Columns and labels:
[1] = system: HCT 116 cells; experiment: MTT cell viability assay, HCT 116 cells; assay type: cell-based; details: Homo sapiens, 72 h, mean ± SD of 3 experiments; for GI50: read-out: GI50 (50% growth inhibition concentration), HCT 116 cells
Experimental: (§1) HCT 116 and MCF-7 cells were seeded in 96-well plates at a density of 1 × 10^4 cells/well and allowed to grow for 20-24 h before addition of test compounds. DMSO stocks of indolin-2-one compounds were serially diluted in medium each time an assay was performed. Cell viability was determined at the time of compound addition (time 0) and after 72 h of compound treatment by reduction of 3-(4,5-dimethylthiazol-2-yl)-2,5-diphenyltetrazolium bromide (MTT) by dehydrogenases in viable cells. MTT was added into each well (final concentration 400 μg/ml) and the plates were incubated for 4 h at 37°C. The supernatants were aspirated and upon solubilization of the formed formazan crystals in DMSO:glycine buffer pH 10.5 (ratio 4:1), absorbance at 550 nm was measured. 50% growth inhibition concentrations (GI50) and 50% lethal concentrations (LC50) values were calculated.

[2] = system: MCF-7 cells; experiment: MTT cell viability assay, MCF-7 cells; assay type: cell-based; details: Homo sapiens, MCF7, 72 h, mean ± SD of 3 experiments; for GI50: read-out: GI50 (50% growth inhibition concentration), MCF-7 cells; for CC50: read-out: LC50 (50% lethal concentration), MCF-7 cells
Experimental: as §1

[3] = biological target: T1, recombinant rat TrxR (Rattus norvegicus, UniProt O89049); experiment: in vitro TrxR DTNB reduction assay; assay type: biochemical; details: 30 min incubation, 100 nM recombinant rat TrxR, 200 μM NADPH, read-out: TrxR inhibition IC50
T1 construct: made in house
T1 sequence (O89049 1-499): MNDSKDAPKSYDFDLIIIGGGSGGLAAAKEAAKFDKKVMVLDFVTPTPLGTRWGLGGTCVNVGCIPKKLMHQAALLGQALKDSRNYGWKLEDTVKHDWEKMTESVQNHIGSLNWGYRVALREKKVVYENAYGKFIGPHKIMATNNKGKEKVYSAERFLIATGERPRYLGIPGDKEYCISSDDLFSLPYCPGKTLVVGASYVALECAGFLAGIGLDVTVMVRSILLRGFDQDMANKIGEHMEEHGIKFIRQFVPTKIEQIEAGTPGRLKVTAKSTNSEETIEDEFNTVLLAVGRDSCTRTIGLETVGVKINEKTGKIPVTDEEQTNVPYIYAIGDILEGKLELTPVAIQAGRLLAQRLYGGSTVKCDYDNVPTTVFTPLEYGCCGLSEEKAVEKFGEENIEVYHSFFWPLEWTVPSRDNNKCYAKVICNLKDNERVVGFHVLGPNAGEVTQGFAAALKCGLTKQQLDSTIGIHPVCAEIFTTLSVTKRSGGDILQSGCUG
Experimental: In a volume of 100 μl of 50 mM Tris-HCl pH 7.5, 2 mM EDTA buffer (TE buffer), compounds of concentrations 1-100 μM were incubated with 100 nM recombinant rat TrxR and 200 μM NADPH at room temperature in 96-well plates for 30 and 60 min. The incubation was terminated by addition of 100 μl per well of 10 mM DTNB, 200 μM NADPH solution in TE buffer and immediately followed by measurement of linear increase of absorbance at 412 nm for the initial 2 min using the VersaMax microplate reader (Molecular Devices). The results were expressed as % of TrxR activity of drug-treated sample over that of DMSO control. The 50% inhibition concentration (IC50) values were calculated.

[4] = biological target: T1, recombinant rat TrxR; experiment: NADPH oxidase activity of recombinant rat TrxR (substrate test); assay type: biochemical; details: 8 μM juglone, 15 nM TrxR, 250 μM NADPH, 20 min
Experimental: In a volume of 198 μl of 15 nM recombinant rat TrxR and 250 μM NADPH in TE buffer, 2 μl of diluted DMSO stocks of juglone and compounds 4 and 5 was added to final concentrations of 8 μM (for julgone) and 100 μM (for compounds 4 and 5). The consumption of NADPH was immediately monitored at 340 nm for 20 min using the VersaMax microplate reader. The linear decrease in NADPH absorbance was used for calculating NADPH consumption and expressed as % of activity of drug-treated sample over that of DMSO-treated sample.

| Structure (SMILES) | LC50 (50% lethal concentration) [1] | GI50 [1] | GI50 [2] | CC50 [2] | IC50 [3] | rate of NADPH consumption of recombinant TrxR [4] |
| --- | --- | --- | --- | --- | --- | --- |
| CCN1C(=O)/C(=C/C(C)=O)c2ccccc21 [Compound 2] | 9.7 ± 0.1 µM | 4.2 ± 0.5 µM | 7.9 ± 1.7 µM | 25 ± 1.6 µM | 10.2 ± 1.8 µM |  |
| CC(=O)/C=C1/C(=O)N(C(C)C)c2ccccc21 [Compound 3] | 9.8 ± 0.1 µM | 5.3 ± 0.1 µM | 7.1 ± 0.6 µM | 22.4 ± 0.6 µM | 15 ± 1.4 µM |  |
| Cc1ccccc1C(=O)/C=C1/C(=O)N(C)c2ccccc21 [Compound 7] | 27.8 ± 0.8 µM | 12.4 ± 2.1 µM | 17.3 ± 4.6 µM | 27.9 ± 1.5 µM | 19 ± 2.4 µM |  |
| Cc1cccc(C(=O)/C=C2/C(=O)N(C)c3ccccc32)c1 [Compound 8] | 28 ± 1 µM | 10.4 ± 2.6 µM | 14 ± 0.6 µM | 27.9 ± 0.6 µM | 22.5 ± 0.4 µM |  |
| Cc1ccc(C(=O)/C=C2/C(=O)N(C)c3ccccc32)cc1 [Compound 9] | 28.6 ± 0.8 µM | 10.5 ± 1.2 µM | 10.5 ± 0.8 µM | 28.4 ± 0.8 µM | 21.6 ± 4.4 µM |  |
| CCc1ccc(C(=O)/C=C2/C(=O)N(C)c3ccccc32)cc1 [Compound 10] | 28.8 ± 1.1 µM | 11.9 ± 1.1 µM | 10.4 ± 0.6 µM | 30.4 ± 6.2 µM | 19.1 ± 0.4 µM |  |
| CC(C)c1ccc(C(=O)/C=C2/C(=O)N(C)c3ccccc32)cc1 [Compound 11] | 26.7 ± 1.7 µM | 14.4 ± 1.8 µM | 10.5 ± 1.7 µM | 27 ± 0.4 µM | 25.2 ± 5.4 µM |  |
| CCCCc1ccc(C(=O)/C=C2/C(=O)N(C)c3ccccc32)cc1 [Compound 12] | 26.7 ± 0.8 µM | 13.5 ± 2.6 µM | 16.5 ± 4 µM | 81.2 ± 9.7 µM | > 100 µM |  |
| CN1C(=O)/C(=C/C(=O)c2ccc(F)cc2)c2ccccc21 [Compound 13] | 29 ± 1.4 µM | 11.9 ± 0.5 µM | 12.5 ± 2.4 µM | 28.6 ± 1.2 µM | 18.7 ± 3.56 µM |  |
| CN1C(=O)/C(=C/C(=O)c2cccc(Cl)c2)c2ccccc21 [Compound 14] | 26.9 ± 1.5 µM | 15.6 ± 1.1 µM | 23 ± 4.5 µM | 84.3 ± 5.8 µM | 18.4 ± 2.2 µM |  |
| CN1C(=O)/C(=C/C(=O)c2ccc(Cl)cc2)c2ccccc21 [Compound 15] | 28.6 ± 1.4 µM | 12.4 ± 2.8 µM | 20.9 ± 3 µM | 92 ± 1.2 µM | 16.9 ± 3.4 µM |  |
| CN1C(=O)/C(=C/C(=O)c2ccccc2C(F)(F)F)c2ccccc21 [Compound 16] | 27.7 ± 3.1 µM | 19.5 ± 1.3 µM | 15.8 ± 1 µM | 27.7 ± 1.9 µM | 28.9 ± 0.2 µM |  |
| CN1C(=O)/C(=C/C(=O)c2cccc(C(F)(F)F)c2)c2ccccc21 [Compound 17] | 26.2 ± 2.1 µM | 16.1 ± 2.2 µM | 17.9 ± 0.4 µM | 89.6 ± 3.6 µM | 34.2 ± 18.2 µM |  |
| CN1C(=O)/C(=C/C(=O)c2ccc(C(F)(F)F)cc2)c2ccccc21 [Compound 18] | 90.5 ± 7.3 µM | 15.7 ± 1.7 µM | 44.4 ± 0.1 µM | 89.8 ± 5.1 µM | > 100 µM |  |
| CN1C(=O)/C(=C\C(=O)c2ccc(Cl)cc2)c2ccccc21 [Compound 20] | 28.7 ± 2.4 µM | 16.1 ± 2.4 µM | 20.4 ± 3.5 µM | 91.7 ± 2 µM | 15.9 ± 2.9 µM |  |
| O=C1C=CC(=O)c2c(O)cccc21 [juglone] |  |  |  |  |  | markedly increased |
